From ChEMBL document CHEMBL1201862, “PubChem BioAssay data set” (2004)
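Test compounds were applied to cells in 96-well plates for 48 hours at 5 doses. GI50: concentration for 50% inhibition of growth.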 Active and inactive are the calls of the source. No stated cut-off is given here; in the data, active = GI50 up to about 1.1 µM and inactive = higher.

Columns and labels:
Experiment in all cases: NCI anticancer screen, dose series, 48 h
SNB-75 = system: SNB-75
Malme-3M = system: Malme-3M
SNB-78 = system: SNB-78
HOP-92 = system: HOP-92
EKVX = system: EKVX
SF-268 = system: SF-268
SK-MEL-28 = system: SK-MEL-28
M19-MEL = system: M19-MEL
RXF 393 = system: RXF 393
HCT-116 = system: HCT-116
OVCAR-3 = system: OVCAR-3
M14 = system: M14
DMS-114 = system: DMS-114
SR = system: SR
UACC-62 = system: UACC-62
SK-MEL-5 = system: SK-MEL-5
DLD-1 = system: DLD-1
OVCAR-8 = system: OVCAR-8
OVCAR-5 = system: OVCAR-5
DMS-273 = system: DMS-273
OVCAR-4 = system: OVCAR-4
KM12 = system: KM12
HOP-18 = system: HOP-18
HL-60 = system: HL-60
LXFL 529 = system: LXFL 529
RPMI-8226 = system: RPMI-8226
HCT-15 = system: HCT-15
SN12C = system: SN12C
A549 = system: A549
HOP-62 = system: HOP-62
U-251 = system: U-251
TK-10 = system: TK-10
ACHN = system: ACHN
NCI-H23 = system: NCI-H23
NCI-H226 = system: NCI-H226
HCC 2998 = system: HCC 2998
SNB-19 = system: SNB-19
SK-OV-3 = system: SK-OV-3
A498 = system: A498
CCRF-CEM = system: CCRF-CEM
NCI-H460 = system: NCI-H460
XF498 = system: XF498
UACC-257 = system: UACC-257
SW-620 = system: SW-620
IGROV-1 = system: IGROV-1
MOLT-4 = system: MOLT-4
COLO 205 = system: COLO 205
HT-29 = system: HT-29
SF-539 = system: SF-539
KM-20L2 = system: KM-20L2
SF-295 = system: SF-295
786-0 = system: 786-0
K562 = system: K562
UO-31 = system: UO-31
LOX IMVI = system: LOX IMVI
SK-MEL-2 = system: SK-MEL-2
NCI-H522 = system: NCI-H522
CAKI-1 = system: CAKI-1

CCOC(=O)N1C2C=C(C)C(ON2C(=O)c2ccccc2)C2C(C)C(=O)N21 (stereo unspecified)
GI50 (SNB-75): 23.6 µM (inactive) | GI50 (Malme-3M): > 100 µM (inactive) | GI50 (SNB-78): > 100 µM (inactive) | GI50 (HOP-92): > 100 µM (inactive) | GI50 (EKVX): > 100 µM (inactive) | GI50 (SF-268): > 100 µM (inactive) | GI50 (SK-MEL-28): > 100 µM (inactive) | GI50 (M19-MEL): > 100 µM (inactive) | GI50 (RXF 393): > 100 µM (inactive) | GI50 (HCT-116): > 100 µM (inactive) | GI50 (OVCAR-3): > 100 µM (inactive) | GI50 (M14): > 100 µM (inactive) | GI50 (DMS-114): > 100 µM (inactive) | GI50 (SR): > 100 µM (inactive) | GI50 (UACC-62): > 100 µM (inactive) | GI50 (SK-MEL-5): > 100 µM (inactive) | GI50 (DLD-1): > 100 µM (inactive) | GI50 (OVCAR-8): > 100 µM (inactive) | GI50 (OVCAR-5): > 100 µM (inactive) | GI50 (DMS-273): > 100 µM (inactive) | GI50 (OVCAR-4): > 100 µM (inactive) | GI50 (KM12): > 100 µM (inactive) | GI50 (HOP-18): > 100 µM (inactive) | GI50 (HL-60): > 100 µM (inactive) | GI50 (LXFL 529): > 100 µM (inactive) | GI50 (RPMI-8226): > 100 µM (inactive) | GI50 (HCT-15): > 100 µM | GI50 (SN12C): > 100 µM (inactive) | GI50 (A549): > 100 µM (inactive) | GI50 (HOP-62): > 100 µM (inactive) | GI50 (U-251): > 100 µM (inactive) | GI50 (TK-10): > 100 µM (inactive) | GI50 (ACHN): > 100 µM (inactive) | GI50 (NCI-H23): > 100 µM (inactive) | GI50 (NCI-H226): > 100 µM (inactive) | GI50 (HCC 2998): > 100 µM (inactive) | GI50 (SNB-19): > 100 µM (inactive) | GI50 (SK-OV-3): > 100 µM (inactive) | GI50 (A498): > 100 µM (inactive) | GI50 (CCRF-CEM): > 100 µM (inactive) | GI50 (NCI-H460): > 100 µM (inactive) | GI50 (XF498): > 100 µM (inactive) | GI50 (UACC-257): > 100 µM (inactive) | GI50 (SW-620): > 100 µM (inactive) | GI50 (IGROV-1): > 100 µM (inactive) | GI50 (MOLT-4): > 100 µM (inactive) | GI50 (COLO 205): > 100 µM (inactive) | GI50 (HT-29): > 100 µM (inactive) | GI50 (SF-539): > 100 µM (inactive) | GI50 (KM-20L2): > 100 µM (inactive) | GI50 (SF-295): > 100 µM (inactive) | GI50 (786-0): > 100 µM (inactive) | GI50 (K562): > 100 µM (inactive) | GI50 (UO-31): > 100 µM (inactive) | GI50 (LOX IMVI): > 100 µM (inactive) | GI50 (SK-MEL-2): > 100 µM (inactive)

CC(=O)O[C@H]1C(=O)[C@@]2(C)C(C(OC(=O)c3ccccc3)[C@]3(O)CC(OC(=O)C(O)C(NC(=O)c4ccccc4)c4ccc(C)cc4)C(C)=C1C3(C)C)[C@]1(OC(C)=O)CO[C@@H]1C[C@@H]2O (stereo partly specified)
GI50 (SNB-75): 0.0531 µM (active) | GI50 (Malme-3M): 0.0538 µM (active) | GI50 (SNB-78): 0.507 µM (active) | GI50 (HOP-92): 0.565 µM (active) | GI50 (EKVX): 8.95 µM (inactive) | GI50 (SF-268): 3.64 µM (inactive) | GI50 (M19-MEL): 0.0195 µM (active) | GI50 (RXF 393): 0.0074 µM (active) | GI50 (HCT-116): 0.00938 µM (active) | GI50 (OVCAR-3): 0.00673 µM (active) | GI50 (NCI-H522): 0.0108 µM (active) | GI50 (M14): 0.0161 µM (active) | GI50 (DMS-114): 0.0197 µM (active) | GI50 (UACC-62): 0.043 µM (active) | GI50 (DLD-1): 0.186 µM (active) | GI50 (OVCAR-8): 0.00979 µM (active) | GI50 (OVCAR-5): 0.0618 µM (active) | GI50 (DMS-273): 0.0123 µM (active) | GI50 (OVCAR-4): 3.75 µM (inactive) | GI50 (KM12): 0.0137 µM (active) | GI50 (HOP-18): 4.01 µM (inactive) | GI50 (HL-60): 0.0069 µM (active) | GI50 (LXFL 529): 0.0199 µM (active) | GI50 (RPMI-8226): 0.0117 µM (active) | GI50 (HCT-15): 0.897 µM | GI50 (SN12C): 0.0545 µM (active) | GI50 (A549): 0.0179 µM (active) | GI50 (HOP-62): 0.0995 µM (active) | GI50 (U-251): 0.0197 µM (active) | GI50 (TK-10): 3.08 µM (inactive) | GI50 (ACHN): 0.466 µM (active) | GI50 (NCI-H23): 0.0251 µM (active) | GI50 (SNB-19): 0.0243 µM (active) | GI50 (SK-OV-3): 0.0117 µM (active) | GI50 (A498): 12 µM (inactive) | GI50 (CCRF-CEM): 0.0147 µM (active) | GI50 (NCI-H460): 0.00826 µM (active) | GI50 (CAKI-1): 0.104 µM (active) | GI50 (XF498): 0.0025 µM (active) | GI50 (UACC-257): 0.0656 µM (active) | GI50 (SW-620): 0.00555 µM (active) | GI50 (IGROV-1): 0.0215 µM (active) | GI50 (MOLT-4): 0.0163 µM (active) | GI50 (COLO 205): 0.0153 µM (active) | GI50 (HT-29): 0.0094 µM (active) | GI50 (SF-539): 0.0106 µM (active) | GI50 (KM-20L2): 0.031 µM (active) | GI50 (SF-295): 0.0787 µM (active) | GI50 (786-0): 0.073 µM (active) | GI50 (K562): 0.0308 µM (active) | GI50 (UO-31): 2 µM (inactive) | GI50 (LOX IMVI): 0.033 µM (active) | GI50 (SK-MEL-2): 0.0179 µM (active)

CN1C(=O)C(=O)N2c3ccc(Cl)cc3C3(c4ccccc4)N=CC12O3 (stereo unspecified)
GI50 (SNB-75): 3.6 µM (inactive) | GI50 (Malme-3M): 20 µM (inactive) | GI50 (SNB-78): 6.7 µM (inactive) | GI50 (HOP-92): 2.39 µM (inactive) | GI50 (EKVX): 8.87 µM (inactive) | GI50 (SF-268): 7.53 µM (inactive) | GI50 (SK-MEL-28): 3.44 µM (inactive) | GI50 (M19-MEL): 3.57 µM (inactive) | GI50 (RXF 393): 1.9 µM (inactive) | GI50 (HCT-116): 3.9 µM (inactive) | GI50 (OVCAR-3): 4.38 µM (inactive) | GI50 (NCI-H522): 2.4 µM (inactive) | GI50 (M14): 3.21 µM (inactive) | GI50 (DMS-114): 3.21 µM (inactive) | GI50 (UACC-62): 3.94 µM (inactive) | GI50 (SK-MEL-5): 5.52 µM (inactive) | GI50 (DLD-1): 2.83 µM (inactive) | GI50 (OVCAR-8): 3.13 µM (inactive) | GI50 (OVCAR-5): 6.93 µM (inactive) | GI50 (DMS-273): 4.35 µM (inactive) | GI50 (OVCAR-4): 2.11 µM (inactive) | GI50 (KM12): 3.55 µM (inactive) | GI50 (HOP-18): 20.4 µM (inactive) | GI50 (HL-60): 2.25 µM (inactive) | GI50 (LXFL 529): 3 µM (inactive) | GI50 (RPMI-8226): 2.19 µM (inactive) | GI50 (HCT-15): 3.24 µM | GI50 (SN12C): 3.53 µM (inactive) | GI50 (A549): 10.8 µM (inactive) | GI50 (HOP-62): 15 µM (inactive) | GI50 (U-251): 9.48 µM (inactive) | GI50 (TK-10): 5.45 µM (inactive) | GI50 (ACHN): 4.7 µM (inactive) | GI50 (NCI-H23): 4.13 µM (inactive) | GI50 (NCI-H226): 10.1 µM (inactive) | GI50 (HCC 2998): 14.7 µM (inactive) | GI50 (SNB-19): 12.9 µM (inactive) | GI50 (SK-OV-3): 10.1 µM (inactive) | GI50 (A498): 10.8 µM (inactive) | GI50 (CCRF-CEM): 3.03 µM (inactive) | GI50 (NCI-H460): 6.03 µM (inactive) | GI50 (CAKI-1): 5.13 µM (inactive) | GI50 (XF498): 3.13 µM (inactive) | GI50 (UACC-257): 5.79 µM (inactive) | GI50 (SW-620): 3.79 µM (inactive) | GI50 (IGROV-1): 7.28 µM (inactive) | GI50 (MOLT-4): 3.07 µM (inactive) | GI50 (COLO 205): 4.02 µM (inactive) | GI50 (HT-29): 4.55 µM (inactive) | GI50 (SF-539): 3.27 µM (inactive) | GI50 (KM-20L2): 8.83 µM (inactive) | GI50 (SF-295): 11.1 µM (inactive) | GI50 (786-0): 6.95 µM (inactive) | GI50 (K562): 3.45 µM (inactive) | GI50 (UO-31): 4.1 µM (inactive) | GI50 (LOX IMVI): 1.53 µM (inactive) | GI50 (SK-MEL-2): 6.01 µM (inactive)
